Reference: the CheMixHub ionic liquid set

Experiment: xn = mol fraction of the nth substance listed

CC[n+]1ccccc1.[Cl-] + CCCC[n+]1ccccc1.[Br-]
viscosity [mPa·s], 101 kPa
Conditions	x1 = 0.118	x1 = 0.197	x1 = 0.318	x1 = 0.384	x1 = 0.492	x1 = 0.585	x1 = 0.686	x1 = 0.81	x1 = 0.902
373.1 K	–	–	–	61	54.1	48.8	43.7	38	–
378.1 K	–	–	53.6	50.2	44.7	40.6	36.5	32	–
383.1 K	53.8	49.7	44	41.4	37.1	33.8	30.6	27.1	–
388.1 K	44	40.8	36.4	34.3	31	28.4	25.8	23	20.9
393.1 K	36.2	33.7	30.3	28.6	26	24	21.9	19.7	18
398.1 K	30	28.1	25.4	24.1	22	20.4	18.8	17	15.59
403.1 K	25.1	23.6	21.5	20.5	18.8	17.5	16.19	14.73	13.59
408.1 K	21.2	20.1	18.4	17.5	16.2	15.19	14.08	12.9	11.96
413.1 K	18.2	17.2	15.87	15.16	14.1	13.27	12.36	11.39	10.58
418.1 K	15.69	14.92	13.82	13.25	12.37	11.7	10.93	10.12	9.43
423.1 K	13.69	13.06	12.15	11.69	10.96	10.4	9.75	9.08	8.49
428.1 K	12.07	11.55	10.79	10.4	9.79	9.32	8.77	8.21	7.68
433.1 K	10.76	10.32	9.68	9.35	8.83	8.44	7.96	7.48	7.02
438.1 K	9.69	9.31	8.77	8.48	8.04	7.7	7.29	6.88	6.46
443.1 K	8.82	8.5	8.03	7.78	7.39	7.11	6.74	6.38	6

CC[n+]1ccccc1.[Cl-] + CCCC[n+]1ccccc1.[Cl-]
101 kPa
Conditions	viscosity [mPa·s]
388.1 K, x1 = 0.804	23.2
393.1 K, x1 = 0.504	27.4
393.1 K, x1 = 0.804	19.8
398.1 K, x1 = 0.504	23.4
398.1 K, x1 = 0.702	18.5
398.1 K, x1 = 0.804	17
403.1 K, x1 = 0.804	14.67
408.1 K, x1 = 0.198	22.8
413.1 K, x1 = 0.198	19.7
413.1 K, x1 = 0.795	11.06
418.1 K, x1 = 0.504	13.42
423.1 K, x1 = 0.388	12.25
428.1 K, x1 = 0.702	8.33
428.1 K, x1 = 0.795	7.76
433.1 K, x1 = 0.597	8.38
438.1 K, x1 = 0.302	9.51
438.1 K, x1 = 0.702	6.8
443.1 K, x1 = 0.504	8.1
443.1 K, x1 = 0.804	6.06

CO + CCCC[n+]1ccn(C)c1.F[B-](F)(F)F
101 kPa, x1 = 1
Conditions	viscosity [mPa·s]
303.15 K	0.519
333.15 K	0.363

ClCCl + CCCC[n+]1ccn(C)c1.F[B-](F)(F)F
298.15 K
Conditions	electrical conductivity, 101 kPa [S/m]	viscosity, 101 kPa [mPa·s]	viscosity, 101.33 kPa [mPa·s]
x1 = 0.1	0.265	85	–
x1 = 0.1923	0.348	63.1	–
x1 = 0.2841	0.45	46.1	–
x1 = 0.3884	0.592	31.2	–
x1 = 0.4507	–	–	14.3
x1 = 0.4878	0.772	20	–
x1 = 0.5882	0.99	12.3	–
x1 = 0.6897	1.18	6.73	–
x1 = 0.756	1.26	4	–
x1 = 0.8395	1.18	1.96	–

ClCCl + CCCC[n+]1ccn(C)c1.F[P-](F)(F)(F)(F)F
298.15 K, 101 kPa
Conditions	electrical conductivity [S/m]	viscosity [mPa·s]
x1 = 0.2451	0.394	89
x1 = 0.4351	0.731	34.7

c1ccccc1 + CCCC[n+]1ccn(C)c1.N#C[S-]
100 kPa, x1 = 1
Conditions	viscosity [mPa·s]
298.15 K	0.605
308.15 K	0.527
318.15 K	0.466
328.15 K	0.363

CO + CCCC[n+]1ccn(C)c1.O=S(=O)([N-]S(=O)(=O)C(F)(F)F)C(F)(F)F
Conditions	viscosity [mPa·s]
298 K, 100 kPa, x2 = 0	0.534

ClCCl + CCCC[n+]1ccn(C)c1.O=S(=O)([N-]S(=O)(=O)C(F)(F)F)C(F)(F)F
298 K, 101 kPa
Conditions	electrical conductivity [S/m]
x1 = 0.8744	1.36
x1 = 0.9287	0.98
x1 = 0.9459	0.797

c1ccccc1 + CCCC[n+]1ccn(C)c1.O=S(=O)([O-])C(F)(F)F
100 kPa, x1 = 1
Conditions	viscosity [mPa·s]
308.15 K	0.527
318.15 K	0.466

CO + CCCC[n+]1ccn(C)c1.[Cl-]
Conditions	viscosity [mPa·s]
308.15 K, 101 kPa, x1 = 1	0.49

C=CC[n+]1ccn(C)c1.O=S(=O)([N-]S(=O)(=O)C(F)(F)F)C(F)(F)F + CCCO
298.15 K, 100 kPa
Conditions	viscosity [mPa·s]
x1 = 0.2	5.11
x1 = 0.5	10.41
x1 = 0.7	16.23
x1 = 0.8	20.34
x1 = 0.9	25.56

CC(O)C(=O)[O-].C[N+](C)(C)CCO + CCCO + O
100 kPa, x1 = 0.00408, x2 = 0.5431
Conditions	viscosity [mPa·s]
288.15 K	3.551
298.15 K	2.585
308.15 K	1.943

CC(O)C(=O)[O-].C[N+](C)(C)CCO + CCO
101 kPa
Conditions	viscosity [mPa·s]
293.15 K, x2 = 0.2996	225.4
293.15 K, x2 = 0.7013	17.75
293.15 K, x2 = 0.7987	8.579
298.15 K, x2 = 0.7987	7.357
303.15 K, x2 = 0.601	25.96
303.15 K, x2 = 0.8996	2.853
308.15 K, x2 = 0.2011	144.8
318.15 K, x2 = 0	158.7
318.15 K, x2 = 0.601	15.05
323.15 K, x2 = 0.1039	91.6
323.15 K, x2 = 0.5003	20.51
323.15 K, x2 = 0.7987	3.792
328.15 K, x2 = 0.1039	72.67
328.15 K, x2 = 0.601	11.1
328.15 K, x2 = 0.7987	3.387
333.15 K, x2 = 0.1039	58.6
333.15 K, x2 = 0.601	9.667
338.15 K, x2 = 0.3999	19.08

CCCC[n+]1ccn(C)c1.[I-] + CCO
298.15 K, 100 kPa
Conditions	electrical conductivity [S/m]
x1 = 0.009029	0.254
x1 = 0.1006	1.47
x1 = 0.2076	1.74

CC[n+]1ccn(C)c1.COP(=O)([O-])OC + CCO
Conditions	viscosity [mPa·s]
293.15 K, 100 kPa, x1 = 0.7006	121.4
298.15 K, 100 kPa, x1 = 0.5013	37.58
298.15 K, 100 kPa, x1 = 0.7006	95.5
298.15 K, 100 kPa, x1 = 0.8011	141.3
298.15 K, 101 kPa, x2 = 0.398	68.8
298.15 K, 101 kPa, x2 = 0.598	23.29
303.15 K, 100 kPa, x1 = 0.3007	10.67
303.15 K, 100 kPa, x1 = 0.5994	48.5
303.15 K, 101 kPa, x2 = 0.398	55.24
308.15 K, 100 kPa, x1 = 1	134.2
308.15 K, 101 kPa, x2 = 0.798	4.904
313.15 K, 100 kPa, x1 = 0.3007	8.34
313.15 K, 100 kPa, x1 = 0.5994	31.82
313.15 K, 100 kPa, x1 = 1	102.6
318.15 K, 100 kPa, x1 = 0.3007	7.45
318.15 K, 101 kPa, x2 = 0.398	31.25
318.15 K, 101 kPa, x2 = 0.598	12.92
323.15 K, 100 kPa, x1 = 0.5013	15.7
323.15 K, 100 kPa, x1 = 0.8011	38.59
328.15 K, 100 kPa, x1 = 0.7006	25.53
328.15 K, 101 kPa, x2 = 0.199	38.21
333.15 K, 100 kPa, x1 = 0.1004	1.71
333.15 K, 100 kPa, x1 = 0.7006	21.5
333.15 K, 100 kPa, x1 = 1	41.05
338.15 K, 100 kPa, x1 = 0.8988	26.44

CC[n+]1ccn(C)c1.O=S(=O)([N-]S(=O)(=O)C(F)(F)F)C(F)(F)F + CCOC(C)=O
100 kPa
Conditions	viscosity [mPa·s]
303.15 K, x2 = 0.2977	12.85
303.15 K, x2 = 0.3962	9.43
303.15 K, x2 = 0.5961	4.75
303.15 K, x2 = 0.7974	1.97
303.15 K, x2 = 0.8979	0.88
308.15 K, x2 = 0	23.29
308.15 K, x2 = 0.2977	11.24
313.15 K, x2 = 0.3962	7.36
313.15 K, x2 = 0.5051	5.15
318.15 K, x2 = 0.1858	11.49
318.15 K, x2 = 0.3962	6.49
318.15 K, x2 = 0.5051	4.36
318.15 K, x2 = 0.8979	0.73
323.15 K, x2 = 0.6909	2.05

CC[n+]1ccn(C)c1.O=S(=O)([N-]S(=O)(=O)C(F)(F)F)C(F)(F)F + CCOS(=O)(=O)[O-].CC[n+]1ccn(C)c1
298.15 K, 100 kPa
Conditions	viscosity [mPa·s]
x1 = 0.1042	95.6
x1 = 0.2975	84.1

CC[n+]1ccccc1.[Cl-] + CC[n+]1ccccc1.[Br-]
101 kPa
Conditions	viscosity [mPa·s]
418.1 K, x1 = 0.196	9.57
418.1 K, x1 = 0.613	9.2
423.1 K, x1 = 0.196	8.73
423.1 K, x1 = 0.303	8.64
423.1 K, x1 = 0.613	8.37
423.1 K, x1 = 0.885	8.17
428.1 K, x1 = 0.303	7.88
428.1 K, x1 = 0.688	7.61
433.1 K, x1 = 0.503	7.14
438.1 K, x1 = 0.613	6.53
